How the values were obtained:
Assay type in all cases: cell-based, human
DDR1 mRNA = DDR1 mRNA expression in PBMC by Northern blotting; conditions: 8 hours, TNF-α 5 ng/ml, IL-1β 10 ng/ml, IFN-γ 50 U/ml, GM-CSF 10 ng/ml, LPS 1 μg/ml, PHA 5 μg/ml
Procedure: PMN and PBMC were maintained at a density of 5×10^6 cells/ml in the complete medium in six-well tissue culture cluster (Coster, Cambridge, Mass.; 3 ml/well). Total RNA was extracted from each culture by using TRIZOL® Reagent. PolyA mRNA was purified on Oligotex columns (Qiagen, Valencia, Calif.). Northern blot analysis was performed as described (Yoshimura, J. Immunol. 150:5025, 1993), except that ULTRAhyb (Ambion) was used. A human DDR1 cDNA (757-bp) was obtained by PCR from a U-105 human glioblastoma cell line cDNA library and was ligated into the EcoRI/HindIII site of the pBluescript (Stratagene, La Jolla, Calif.). The sense primer was 5′-[…]-3′ (SEQ ID NO: 2; corresponding to residues between 68 and 87 in the nucleotide sequence of the trkE cDNA, GenBank accession number X74979) and the antisense primer was 5′-[…]-3′ (SEQ ID NO: 3; corresponding to residues between 805 and 824 in the nucleotide sequence of the trkE cDNA).
Freshly isolated PBMC expressed only a low level of DDR1 mRNA. The expression level was increased about eightfold when the cells were incubated in either RPMI 1640 or RPMI 1640 containing 10% FCS.

DDR1 protein = DDR1 protein expression in leukocytes by immunoprecipitation and Western blotting; conditions: PBMC; TNF-α 5 ng/ml or GM-CSF 10 ng/ml, 36 hours
Procedure: For Western blot analysis, cell lysates were prepared from freshly isolated PBMC, PBMC incubated overnight in RPMI 1640 containing 10% FCS, and MCF-7 cells. Cells were lysed on ice for 20 minutes in a buffer containing 50 mM Hepes, 150 mM NaCl, 1% Triton X-100, 10% glycerol, 10 mM NaF, 1 mM ethylenediamine tetraacetic acid, […], 1 mg/ml leupeptin, 1 mM phenylmethylsulfonyl fluoride, 1 mg/ml aprotinin, and 1 mg/ml pepstatin A. The lysates were spun, and the supernatants were collected. The samples were incubated with approximately 20 μl packed volume of PGS for 1 hour at 4° C. After centrifugation, supernatants were collected, mixed with 1 μg/ml normal rabbit IgG or polyclonal anti-human DDR1 IgG, and incubated for 1 hour at 4° C. PGS (20 μl) was then added and incubated for another 1 hour. IgG-coupled PGS was washed with the buffer containing 50 mM Hepes, 150 mM NaCl, 0.1% Triton X-100, 10% glycerol buffer three times, and 20 μl double-strength sample buffer (20% glycerol, 6% sodium dodecylsulfate (SDS), 10% 2-mercaptoethanol) was added. The samples were boiled for 10, minutes. Eluted proteins were analyzed on 7.5% polyacrylamide gels by SDS polyacrylamide gel electrophoresis (SDS-PAGE) and transferred electrophoretically to nitrocellulose membranes (Amersham, Arlington Heights, Ill.) at 200 mA for 2 hours by a semi-dry system. The membranes were incubated with polyclonal anti-human DDR1 or anti-phosphotyrosine IgG, followed by sheep anti-mouse IgG coupled with horseradish peroxidase (Amersham). Peroxidase activity was visualized by the Enhanced Chemiluminescence Detection System (Amersham).
There was no detectable DDR1 protein in freshly isolated PBMC. DDR1 protein was detected clearly after overnight incubation in RPMI 1640 containing 10% FCS. In order to study the kinetics of DDR1 protein expression, PBMC were incubated with or withour addition of TNF-α (5 ng/ml), or GM-CSF (10 ng/ml) for 36 hours and cell lysates were prepared. Cell lysates were subjected to immunoprecipitation with anti-DDR1 IgG or control IgG. […]

IκBα = test: IκB degradation in PMA-treated THP-1 cells, Western blotting; conditions: 10 nM PMA
Procedure: Mock-transduced and DDR1b-overexpressing THP-1 cells were plated at 5×10^6cells/ml and treated with 10 nM PMA on collagen-coated plates for varous times. Ten million cells were lysed on ice for 20 minutes in a buffer containing 50 mM NaCl, 20 mM Tris-HCl, 50 mM sodium fluoride, 30 mM Na4P2O7, 5 mM EGTA, 3 mM sodium orthovanadate, 1% Triton X-100; 1 mg/ml leupeptin, 1 mM PMSF, 1 mg/ml aprotinin, 1 mg/ml pepstatin A and 100 μM sodium orthovanadate in […] lysates were spun and the supernatants were collected. Each sample was boiled in double-strength sample buffer for 10 minutes, electrophoresed on 10% polyacrylamide gels by SDS-PAGE, and transferred electrophoretically to nitrocellulose membranes at 150 mA for 1 hour by a semi-dry system. The membranes were incubated with mouse monoclonal anti-IκB antibody followed by sheep anti-mouse IgG coupled with horseradish peroxidase. Peroxidase activity was visualized by the Enhanced Chemiluminescence Detection System (Amersham).

PMN = test: MCP-1 release by PMN (neutrophils), ELISA
Procedure: Human PMN and peripheral blood mononuclear cells (PBMC) were obtained from heparinized blood from human donors (10 units of heparin per ml of blood). One volume of 5% dextran (T-500 Pharmacia, Piscataway, N.J.) in phosphate buffered saline (PBS) was added to three volumes of blood in 50 ml polypropylene tubes. After a 40 minute incubation at room temperature, the leukocyte-rich plasma layer was removed and overlaid onto Lymphoprep in 50 ml tubes and the tubes were centrifuged at 800×g for 20 minutes at room temperature. PMN were separated from erythrocytes by lysis in 0.2% NaCl, washed in complete medium three times at 4° C. and resuspended in complete medium. PBMC contained in the PMN preparations obtained by this method were less than 0.5% by morphologic examination. Cell viability was higher than 98% by trypan blue staining.
A panel of cytokines was previously tested for their ability to induce MCP-1 production in PMN and it was reported that TNF-α and IFN-γ could cooperate to induce a high level of MCP-1 production (Yamashiro et al., J. Leukoc. Biol. 69:698, 2001). […] The majority of MCP-1 was released between 24 hours and 48 hours, showing a delayed kinetics of MCP-1 release. […] The effect of IFN-γ was dose-dependent.
To confirm that activation of DDR1 was responsible for the increased release of MCP-1 by PMN treated with IFN-γ and collagen, 513 anti-DDR1 Ab was used instead of collagen. The concentrations of MCP-1 were measured in the Lymphokine Testing Laboratory, Clinical Services Program, SAIC-Frederick (Frederick, Md.) with an ELISA kit (R&D Systems) specific for human MCP-1.

Substance	level of DDR1 mRNA expression (DDR1 mRNA)	level of DDR1 protein expression (DDR1 protein)	amounts of IκBα (IκBα; DDR1b-overexpressing cells, at 2 and 3 hours)	level of IκBα (IκBα; mock-transduced cells)	effect on MCP-1 production (PMN; GM-CSF-treated PMN)	effect on MCP-1 production (PMN; PMN treated with TNF-α plus IFN-γ or INF-α plus IFN-γ plus GM-CSF)	effect on MCP-1 production (PMN; PMN, no cytokine or TNF-α added)
TNF-α	further augmented	increased					
collagen			decreased	unchanged	no significant effect	negative effect	no significant effect
